The nature of one series: Cytotoxic test (MTT). The conditions noted are these: rat, PC12 cells, 48 h incubation. It counts as cell-based. The method, then: (§1) After resuscitating, the PC12 cells were cultured in RPMI-1640 containing 10% horse serum and 5% Fetus Bovine Serum (FBS) under 5% CO2 at 37° C. for two weeks. The medium was changed every other day. The compounds were diluted into solutions of 12.5, 25, 50, 100, 200, 300 μM with culture medium (except examples 33-45 with additional solutions of 400 μM and 500 μM). The PC12 cells were seeded into a 96-well plate at a density of 1.2×10^4 cells/well and cultured in a 37° C., 5% CO2 incubator for 24 hours. Remove the medium, the cells were added with the compound solutions of different concentrations as test solutions for another 48 h incubation in a 37° C., 5% CO2 incubator.
After the incubation, the wells were added with 20 μL 5 mg/mL MTT and incubated for 4 hours at 37° C. Carefully removed the medium and added 150 μL DMSO. The plates were placed on an enzyme-labeled instrument and vibrated for 5 min. The absorbance Atest solution were obtained at 490 nm with the Ablank of the well without cells and the Acontrol of the well with untreated cells. The survival rates of the cells in every well were calculated by the formula as Survival rate (%)=(Atest solution−Ablank)/(Acontrol−Ablank)*100%

The next series deals with PC12 cells. As to the kind of experiment: In-vitro neuroprotection-I (H2O2 injury, MTT). Format: cell-based. The conditions noted are these: Rattus norvegicus, PC-12, 48 h compound, then 200 μM H2O2 24 h, MTT survival rate. The method, then: All samples were made into 60 mM stock solution by DMSO, which were 200 times diluted to 300 μM by medium. And the final concentration was further diluted into different concentrations by media.
Control: Normal cell-plating and same cell medium as other group. 24 hours later, the medium was discarded. Incubate the cell in new media for 24 hours. No compound and hydrogen peroxide treatment. Other steps were the same as the sample test as mentioned below did.
Blank: no cell plating, cell medium, and other steps were the same as the sample test as mentioned below did.
as §1, with “(except that” for “(except”, “The PC 12” for “The PC12”, “of 8×10^3” for “of 1.2×10^4”, “hours. Removed” for “hours. Remove”, “incubator. After the incubation, apart from the blank and control groups, the wells (including 0 μM drug group) were added to the medium-prepared 200 μM H2O2, and continued for another 24 h incubation in a 37° C., 5% CO2 incubator.” for “incubator.”
After the incubation, the wells were added with 20 μL 5 mg/mL MTT and incubated for 4 hours at 37° C. Carefully removed the medium and added 150 μL DMSO. The plates were placed on an enzyme-labeled instrument and vibrated for 5 min. The absorbance Atest solution were obtained at 490 nm with the Ablank of the well without cells and the Acontrol of the well with untreated cells. The survival rate of the cells in every well by the formula survival rate (%)=(Atest solution−Ablank)/(Acontrol−Ablank)*100%.

In series [1] the test system is MCAO model (middle cerebral artery ischemia-reperfusion). Put plainly: In vivo drug efficacy test of MCAO model. The note with it: SD rats, MCAO 2 h then reperfusion, tail vein infusion 30 min; for Cerebral infarction area (%): TTC staining, infarct area to whole brain area; for Improvements of nerve function (%): score at 24 h versus model control.

pEC50: −log10 of the molar value. Some results are limits rather than exact numbers.

As usually defined, the IC50 is the point on the concentration scale where inhibition reaches its midpoint. A low value points to inhibition by little substance. What is called pEC50 is the EC50 on a negative log10 scale, so that one unit is a factor of ten. Higher therefore signals a low EC50. Regarding `Cc1cc(OCOC(=O)c2cccnc2)n(-c2ccccc2)n1` [Compound 17, (3-methyl-1-phenylpyrazol-5-) oxymethyl nicotinate], the half-inhibitory concentration (IC50) at 48 h in “Cytotoxic test (MTT)” is over 300 µM. In the series on PC12 cells, this compound gave a negative logarithm of the EC50 (pEC50) of 4.02. For `Cc1cc(OCOC(=O)c2ccccc2)n(-c2ccccc2)n1` [Compound 18, (3-methyl-1-phenylpyrazol-5-) oxymethyl benzoate], the IC50 at 48 h in the series “Cytotoxic test (MTT)” is over 300 µM. The pEC50 with PC12 cells was 4.12. Compound `CCCCCCCCCCCCCCCCCC(=O)OC(C)Oc1cc(C)nn1-c1ccccc1` (stereo not shown) [Compound 6] had a pEC50 in the series on PC12 cells of 4.25. On to `CC(=O)OCOc1cc(C)nn1-c1ccccc1` [Compound 26], for which, in “Cytotoxic test (MTT)”, the 50% inhibitory concentration (IC50) at 48 h was over 300 µM. In the series with PC12 cells, this compound had a pEC50 of 4.26.

On to `CCCCCCCCCCCCCCCCCC(=O)OCOc1cc(C)nn1-c1ccccc1` [Compound 32], for which the IC50 at 48 h in “Cytotoxic test (MTT)” is over 300 µM. In the series on PC12 cells, this compound gave a pEC50 of 4.09. Consider `Cc1cc(OC(C)OC(=O)c2ccccc2)n(-c2ccccc2)n1` (stereo not shown) [Compound 7, 1-(3-methyl-1-phenylpyrazole) oxyethyl benzoate], for which the 50% inhibitory concentration (IC50) at 48 h in “Cytotoxic test (MTT)” is over 300 µM. This compound also gave a negative logarithm of the EC50 (pEC50) in the series on PC12 cells of 4.05. Regarding `Cc1cc(OCNC(=O)C2CC2)n(-c2ccccc2)n1` [Compound 45, N-((1-phenyl-3-methyl-1H-pyrazol-5-yl)oxy) methylcyclopropylformamide], the negative-log EC50 (pEC50) with PC12 cells is 4.12. The same measure, in the same setting: as for `Cc1cc(OCOC(=O)c2cccc(N(C)C)c2O)n(-c2ccccc2)n1` [Compound 23, (3-methyl-1-phenylpyrazol-5-) oxymethyl-(2-hydroxy-3-N,N-dimethyl)benzoate], the figure is 3.91. As for `Cc1cc(OCNC(=O)C(C)C)n(-c2ccccc2)n1` [Compound 43, N-((1-phenyl-3-methyl-1H-pyrazol-5-yl)oxy) methylisobutyramide], in series [1], the “Cerebral infarction area (%)” value is reported as 19.8% and the “Improvements of nerve function (%)” value was 16.1%. The same compound had a pEC50 with PC12 cells of 4.24. Consider `CC(=O)OC(C)Oc1cc(C)nn1-c1ccccc1` (stereo not shown) [Compound 1], for which the pEC50 in the series on PC12 cells was 4.18. As to `Cc1cc(OCOC(=O)Cc2ccccc2)n(-c2ccccc2)n1` [Compound 31], the negative logarithm of the EC50 (pEC50) with PC12 cells is 4.04. On the same count and under the same terms, as for `Cc1cc(OC(C)OC(=O)Cc2ccccc2)n(-c2ccccc2)n1` (stereo not shown) [Compound 8], the figure is 4.00. For the compound `CCC(=O)NCOc1cc(C)nn1-c1ccccc1` [Compound 42, N-((1-phenyl-3-methyl-1H-pyrazol-5-yl)oxy) methyl propionamide], in series [1], the “Cerebral infarction area (%)” value is on record as 19.7% and the “Improvements of nerve function (%)” value is on record as 15.9%. The compound also came in with a concentration for half-maximal inhibition (IC50) at 48 h in the series “Cytotoxic test (MTT)” of over 300 µM. Besides, in the series on PC12 cells, the pEC50 was 4.12. Regarding `Cc1cc(OCOC(=O)C(C)(C)C)n(-c2ccccc2)n1` [Compound 13, (3-methyl-1-phenylpyrazol-5-) oxymethyl pivalate], in series [1], the “Cerebral infarction area (%)” value was 17.5% and the “Improvements of nerve function (%)” value turned out to be 17.2%. In “Cytotoxic test (MTT)”, this compound registered a half-inhibitory concentration (IC50) at 48 h of 252 µM. The compound further had a negative logarithm of the EC50 (pEC50) in the series on PC12 cells of 3.96. In the case of `Cc1cc(OC(C)OC(=O)C(C)(C)C)n(-c2ccccc2)n1` (stereo not shown) [Compound 4, 1-(3-methyl-1-phenylpyrazole) oxyethyl pivalate], the IC50 at 48 h in the series “Cytotoxic test (MTT)” was over 300 µM. For the same compound, the pEC50 in the series with PC12 cells was 4.16. Compound `CC(=O)NCOc1cc(C)nn1-c1ccccc1` [Compound 41, N-((1-phenyl-3-methyl-1H-pyrazol-5-yl)oxy) methylacetamide] gave a negative logarithm of the EC50 (pEC50) with PC12 cells of 4.26. The same measure, in the same setting: as for `Cc1cc(OCOC(=O)C(C)C)n(-c2ccccc2)n1` [Compound 14, (3-methyl-1-phenylpyrazol-5-) oxymethyl isobutyrate], the figure is 4.34; as for `Cc1cc(OC(C)OC(=O)C2CC2)n(-c2ccccc2)n1` (stereo not shown) [Compound 10], 4.25; as for `Cc1cc(OCNC(=O)C2CCCC2)n(-c2ccccc2)n1` [Compound 46, N-((1-phenyl-3-methyl-1H-pyrazol-5-yl)oxy) methylcyclopentylformamide], 4.05. In the case of `Cc1cc(OCOC(=O)C2CCCCC2)n(-c2ccccc2)n1` [Compound 30], the negative-log EC50 (pEC50) in the series on PC12 cells is 4.11. Turning to `CCCCCCCC(=O)OCOc1cc(C)nn1-c1ccccc1` [Compound 15, (3-methyl-1-phenylpyrazol-5-) oxymethyl octanoate], in series [1], the “Cerebral infarction area (%)” value is given as 20.0% and the “Improvements of nerve function (%)” value was 15.9%. Besides, the negative logarithm of the EC50 (pEC50) with PC12 cells was 4.17. For the compound `Cc1cc(OCNC(=O)c2ccccc2)n(-c2ccccc2)n1` [Compound 48, N-((1-phenyl-3-methyl-1H-pyrazol-5-yl)oxy) methylbenzamide], the negative logarithm of the EC50 (pEC50) in the series with PC12 cells was 3.91. On to `Cc1cc(OCOC(=O)CCCc2ccccc2)n(-c2ccccc2)n1` [Compound 16, (3-methyl-1-phenylpyrazol-5-) oxymethyl phenylbutyrate], for which, in series [1], the “Cerebral infarction area (%)” value is 19.9% and the “Improvements of nerve function (%)” value was 16.2%. The concentration for half-maximal inhibition (IC50) at 48 h in the series “Cytotoxic test (MTT)” stood at 234 µM. In addition, in the series with PC12 cells, the pEC50 is 4.32.

The compound `Cc1cc(OCNC(=O)C2CCCCC2)n(-c2ccccc2)n1` [Compound 47, N-((1-phenyl-3-methyl-1H-pyrazol-5-yl)oxy) methylcyclohexanecarboxamide] came in with an IC50 at 48 h in the series “Cytotoxic test (MTT)” of 269 µM. Besides, in the series on PC12 cells, the negative-log EC50 (pEC50) was 4.27.

In the series on PC12 cells, `Cc1cc(OC(C)OC(=O)C2CCCCC2)n(-c2ccccc2)n1` (stereo not shown) [Compound 12] had a negative-log EC50 (pEC50) of 4.05.

In turn, `Cc1cc(OCNC(=O)Cc2ccccc2)n(-c2ccccc2)n1` [Compound 49, N-((1-phenyl-3-methyl-1H-pyrazol-5-yl)oxy) methylphenylacetamide] registered a concentration for half-maximal inhibition (IC50) at 48 h in “Cytotoxic test (MTT)” of over 300 µM. For `CCOC(=O)Oc1ccccc1C(=O)OCOc1cc(C)nn1-c1ccccc1` [Compound 21, (3-methyl-1-phenylpyrazole-5-) oxymethyl-(2-ethoxycarbonyloxy) benzoate], the pEC50 in the series with PC12 cells is 4.09.

Take `CCCCCCCCCCCCCCCCCC(=O)NCOc1cc(C)nn1-c1ccccc1` [Compound 52, N-((1-phenyl-3-methyl-1H-pyrazol-5-yl)oxy)methyl stearamide]: the negative-log EC50 (pEC50) in the series on PC12 cells was 4.10. `Cc1cc(OCOC(=O)c2ccccc2O)n(-c2ccccc2)n1` [Compound 19, (3-methyl-1-phenylpyrazol-5-) oxymethyl-(2-hydroxy) benzoate] registered a concentration for half-maximal inhibition (IC50) at 48 h in the series “Cytotoxic test (MTT)” of over 300 µM. In the series “Cytotoxic test (MTT)”, `Cc1cc(OC(C)OC(=O)C(C)C)n(-c2ccccc2)n1` (stereo not shown) [Compound 3, 1-(3-methyl-1-phenylpyrazole) oxyethyl isobutyrate] registered a half-maximal inhibitory concentration (IC50) at 48 h of over 300 µM. In the series on PC12 cells, the negative logarithm of the EC50 (pEC50) was 4.01. The matching figures for `CCOC(=O)Oc1ccc(N(C)C)cc1C(=O)OCOc1cc(C)nn1-c1ccccc1` [Compound 25, (3-methyl-1-phenylpyrazole-5-) oxymethyl-(2-ethoxycarbonyloxy-5-N,N-dimethyl)benzoic Acid]: over 300 µM and 4.23. In the case of `Cc1cc(OCNC(=O)CCCc2ccccc2)n(-c2ccccc2)n1` [Compound 50, N-((1-phenyl-3-methyl-1H-pyrazol-5-yl)oxy) methylphenylbutyramide], the pEC50 in the series on PC12 cells is 4.00.

Consider `CCCCCCCC(=O)OC(C)Oc1cc(C)nn1-c1ccccc1` (stereo not shown) [Compound 5, 1-(3-methyl-1-phenylpyrazole)oxyethyl octanoate], for which, in “Cytotoxic test (MTT)”, the IC50 at 48 h is over 300 µM. Consider `Cc1cc(OCNC(=O)C(C)(C)C)n(-c2ccccc2)n1` [Compound 44, N-((1-phenyl-3-methyl-1H-pyrazol-5-yl)oxy) methyltrimethylacetamide], for which the negative logarithm of the EC50 (pEC50) in the series with PC12 cells is 4.11. As to `Cc1cc(OCOC(=O)C2CC2)n(-c2ccccc2)n1` [Compound 28], the pEC50 in the series on PC12 cells is 4.07. In the series with PC12 cells, `Cc1cc(OCOC(=O)c2ccccc2OC(=O)C(C)C)n(-c2ccccc2)n1` [Compound 22, (3-methyl-1-phenylpyrazol-5-)oxymethyl-(2-isobutyryloxy)benzoic acid] had a pEC50 of 3.99.

These data come from US11692004B2, “Substituted pyrazole compound, preparation method therefor, pharmaceutical composition and medical use thereof” (JIANGSU VANGUARD PHARMACEUTICAL CO., LTD., priority 2018, dated 2023).
